According to patent publication US9174983B2, “Pyrroloquinoline quinone disodium salt crystal and method for producing the same” (MITSUBISHI GAS CHEMICAL COMPANY, INC., priority 2011, dated 2015):
Values belong to the molecule of their own block, whether it stands above or below them.

Experiments:
Format in all cases: physicochemical
[1] = Dispersibility test of PQQ disodium crystals in soybean oil (precipitation time); conditions: 5 mg crystal in 200 μL soybean oil, room temperature, time until all floating crystals precipitated to the bottom, index of dispersibility
Description: In this example, the PQQ disodium crystal in Crystalline Form 1 and Crystalline Form 2 was compared in dispersibility in edible oils with the conventional crystals.
After drying, the pressure in the vessel was returned to atmospheric pressure, and immediately the glass vessel was closed with a lid. […] After drying, the temperature within the flask was reduced to room temperature with nitrogen gas refluxed.
Then, they were allowed to stand still at room temperature, and the time period until all of the crystals floating on the soybean oil were precipitated to the bottom of the vessel was measured, which was used as an index of dispersibility for each crystal.

[2] = Water content by the Karl Fischer method
Experimental: The water content (% by weight) of each crystal was determined by the Karl Fischer method.

[3] = Heat stability on heating in edible oil (high performance liquid chromatography); conditions: after heating in edible oil ODO at 150° C. for 30 minutes
[4] = Thermogravimetric analysis of water content; conditions: crystal formed at 180° C.
Description: However, this crystal was unstable.

[5] = resulting crystal after the drying step, % by weight

Precipitation time [1]: 30 min | water content [2, 5]: 0.7% | water content ([2]; resulting crystal after the drying step, % by weight, listed as Example 2): 2.2% | water content ([2]; resulting crystal after the drying step, % by weight, listed as Example 3): 1.9% | amount of impurities contained in the crystal [3]: did not increase
Molecule: pyrroloquinoline quinone disodium crystal [Crystalline Form 1]

water content ([2]; crystal as precipitated with ethanol, before drying): 14.5% | water content [2, 5]: 9.6%
Molecule: O=C([O-])c1cc(C(=O)[O-])c2c(n1)C(=O)C(=O)c1cc(C(=O)O)[nH]c1-2.[Na+].[Na+] [Comparative Example 1, reference compound]

Precipitation time [1]: 0.5 min | Precipitation time ([1]; listed as precursor crystal): 0.5 min | water content ([2]; after disposal at 40° C. and relative humidity 75%): 12.7%
Molecule: pyrroloquinoline quinone disodium crystal [Precursor crystal, reference compound]

Precipitation time [1]: 45 min | water content [4]: ~0%
Molecule: pyrroloquinoline quinone disodium crystal [Crystalline Form 2]
